Measurements: patent US4927922A, “7β-(substituted)amino-3-substituted cephalosporanic acids and esters” (American Cyanamid Company, priority 1988, dated 1990)
≈ marks a conversion by molar mass, not a printed value. Like-named read-outs stand apart in the source and are kept apart here. One block for each compound: values may come before it.

Legend:
Assay in all cases: in vitro agar dilution test (MIC)
Type in all cases: cell-based
[1] = test system: Staphylococcus aureus Smith (MP)
Method: (§1) The compounds of the present invention are active antibacterial agents as established in the in vitro agar dilution test using Mueller-Hinton agar. The test compounds were dissolved in a mixture of dimethyl sulfoxide and aqueous sodium bicarbonate and applied as 1 ml of drug solution plus 9 ml of agar per plate. The innoculum was a 5 hour TSB shake culture diluted to 10^-2 with Mueller-Hinton broth and applied to the plates with a Steers' Replicator.
(§2) The results of this test on representative compounds of this invention (identified by Example Number) against a variety of microorganisms appear in Tables I and II in terms of minimal inhibitory concentration (MIC) in mcg/ml together with Cefotaxime, Cephalothin and Ampicillin as positive controls.

[2] = test system: Pseudomonas aeruginosa 12-4-4 (MP)
Method: as §1, §2

[3] = test system: Pseudomonas aeruginosa VGH 84-4; conditions: VGH844
Method: as §1, §2

[4] = test system: Staphylococcus epidermidis CMC 83-135; conditions: CMC83135
Method: as §1, §2

[5] = test system: Proteus rettgheri CMC 84-41
Method: as §1, §2

[6] = test system: Enterobacter cloacae K 84-10; conditions: K8410
Method: as §1, §2

[7] = test system: Escherichia coli ATCC 25922; conditions: ATCC25922, Mueller-Hinton agar, Table II
Method: as §1, §2

[8] = test system: Staphylococcus saprophyticus VGH 84-50; conditions: VGH8450
Method: as §1, §2

[9] = test system: Staphylococcus aureus ATCC 25923; conditions: ATCC25923
Method: as §1, §2

[10] = test system: Serratia marcesans F 35 (MP)
Method: as §1, §2

[11] = test system: Serratia marcesans K 84-18; conditions: K8418
Method: as §1, §2

[12] = test system: Escherichia coli CMC 84-11; conditions: CMC8411, Mueller-Hinton agar
Method: as §1, §2

[13] = test system: Enterococcus VGH 84-65; conditions: VGH8465
Method: as §1, §2

[14] = test system: Klebsiella pneumoniae AD (MP)
Method: as §1, §2

[15] = test system: Escherichia coli No. 311 N.A.; conditions: Mueller-Hinton agar
Method: as §1, §2

[16] = test system: Staphylococcus aureus CMC 83-132; conditions: CMC83132
Method: as §1, §2

[17] = test system: Escherichia coli CMC 84-16; conditions: CMC8416
Method: as §1, §2

[18] = test system: Staphylococcus aureus CMC 83-128; conditions: CMC83128
Method: as §1, §2

[19] = test system: Klebsiella oxytoca MOR 84-28; conditions: MOR8428
Method: as §1, §2

[20] = test system: Staphylococcus aureus CMC 83-131; conditions: CMC83131
Method: as §1, §2

[21] = test system: Staphylococcus epidermidis IO 83-58; conditions: IO8358
Method: as §1, §2

[22] = test system: Enterobacter cloacae VGH 84-37; conditions: VGH8437
Method: as §1, §2

[23] = test system: Morganella morganii VGH 84-11; conditions: VGH8411
Method: as §1, §2

[24] = test system: Enterobacter aerogenes VGH 84-36; conditions: Klebsiella aerogenes, VGH8436
Method: as §1, §2

[25] = test system: Acinetobacter calcoaceticus MOR 84-43; conditions: MOR8443
Method: as §1, §2

[26] = test system: Klebsiella pneumoniae MOR 84-4; conditions: MOR844
Method: as §1, §2

[27] = test system: Escherichia coli No. 311(Parent); conditions: Mueller-Hinton agar
Method: as §1, §2

[28] = test system: Morganella morganii CMC 84-37; conditions: CMC8437
Method: as §1, §2

[29] = Staphylococcus aureus Smith (MP), Mueller-Hinton agar, Table II, read-out: MIC
[30] = Staphylococcus epidermidis CMC 83-135, Mueller-Hinton agar, read-out: MIC
[31] = Proteus rettgheri CMC 84-41, Mueller-Hinton agar, read-out: MIC
[32] = Staphylococcus saprophyticus VGH 84-50, Mueller-Hinton agar, read-out: MIC
[33] = Staphylococcus aureus ATCC 25923, Mueller-Hinton agar, Table II, read-out: MIC
[34] = Serratia marcesans K 84-18, Mueller-Hinton agar, read-out: MIC
[35] = Enterococcus VGH 84-65, Mueller-Hinton agar, read-out: MIC
[36] = Klebsiella pneumoniae AD (MP), Mueller-Hinton agar, Table II, read-out: MIC
[37] = Staphylococcus aureus CMC 83-132, Mueller-Hinton agar, read-out: MIC
[38] = Staphylococcus aureus CMC 83-128, Mueller-Hinton agar, read-out: MIC
[39] = Klebsiella oxytoca MOR 84-28, Mueller-Hinton agar, read-out: MIC
[40] = Staphylococcus aureus CMC 83-131, Mueller-Hinton agar, read-out: MIC
[41] = Staphylococcus epidermidis IO 83-58, Mueller-Hinton agar, read-out: MIC
[42] = Acinetobacter calcoaceticus MOR 84-43, Mueller-Hinton agar, read-out: MIC
[43] = Klebsiella pneumoniae MOR 84-4, Mueller-Hinton agar, read-out: MIC
[44] = Escherichia coli CMC 84-16, Mueller-Hinton agar, read-out: MIC
[45] = Pseudomonas aeruginosa 12-4-4 (MP), Mueller-Hinton agar, Table II, read-out: MIC
[46] = Pseudomonas aeruginosa VGH 84-4, Mueller-Hinton agar, read-out: MIC
[47] = Enterobacter cloacae K 84-10, Mueller-Hinton agar, read-out: MIC
[48] = Serratia marcesans F 35 (MP), Mueller-Hinton agar, read-out: MIC
[49] = Enterobacter cloacae VGH 84-37, Mueller-Hinton agar, read-out: MIC
[50] = Morganella morganii VGH 84-11, Mueller-Hinton agar, read-out: MIC
[51] = Enterobacter aerogenes VGH 84-36, Mueller-Hinton agar, read-out: MIC
[52] = Morganella morganii CMC 84-37, Mueller-Hinton agar, read-out: MIC

SMILES: CC1(C)S[C@@H]2[C@H](NC(=O)[C@H](N)c3ccccc3)C(=O)N2[C@H]1C(=O)O [Ampicillin, reference compound]
- MIC [1, 29]: ≤ 0.12 µg/mL
- MIC ([2]; Pseudomonas aeruginosa): > 256 µg/mL
- MIC ([3]; Pseudomonas aeruginosa): > 256 µg/mL
- MIC [4, 30]: ≤ 0.12 µg/mL
- MIC [5, 31]: 0.5 µg/mL (≈ 1.43 µM)
- MIC ([6]; Enterobacter cloacae): > 256 µg/mL
- MIC [7]: 4 µg/mL (≈ 11.4 µM)
- MIC [8, 32]: ≤ 0.12 µg/mL
- MIC [9, 33]: ≤ 0.12 µg/mL
- MIC ([10]; Serratia): > 256 µg/mL
- MIC [11, 34]: 64 µg/mL (≈ 183 µM)
- MIC [12]: 4 µg/mL (≈ 11.4 µM)
- MIC [13, 35]: 1 µg/mL (≈ 2.86 µM)
- MIC [14, 36]: 0.25 µg/mL (≈ 0.715 µM)
- MIC [15]: 2 µg/mL (≈ 5.72 µM)
- MIC [16, 37]: 1 µg/mL (≈ 2.86 µM)
- MIC ([17]; Escherichia coli): > 256 µg/mL
- MIC [18, 38]: ≤ 0.12 µg/mL
- MIC [19, 39]: 32 µg/mL (≈ 91.6 µM)
- MIC [20, 40]: 2 µg/mL (≈ 5.72 µM)
- MIC [21, 41]: 16 µg/mL (≈ 45.8 µM)
- MIC ([22]; Enterobacter cloacae): > 256 µg/mL
- MIC ([23]; Morganella morganii): > 256 µg/mL
- MIC [24]: 256 µg/mL (≈ 733 µM)
- MIC [25, 42]: 32 µg/mL (≈ 91.6 µM)
- MIC [26, 43]: 32 µg/mL (≈ 91.6 µM)
- MIC [27]: 2 µg/mL (≈ 5.72 µM)
- MIC ([28]; Morganella morganii): 256 µg/mL (≈ 733 µM)

SMILES: CC(=O)OCC1=C(C(=O)O)N2C(=O)[C@@H](NC(=O)Cc3cccs3)[C@H]2SC1 [Cephalothin, reference compound]
- MIC ([1]; Staphylococcus aureus): ≤ 0.12 µg/mL
- MIC ([2]; Pseudomonas aeruginosa): > 256 µg/mL
- MIC ([3]; Pseudomonas aeruginosa): > 256 µg/mL
- MIC ([4]; Staphylococcus epidermidis): ≤ 0.12 µg/mL
- MIC [5]: 4 µg/mL (≈ 10.1 µM)
- MIC ([6]; Enterobacter cloacae): > 256 µg/mL
- MIC [7]: 16 µg/mL (≈ 40.4 µM)
- MIC ([8]; Staphylococcus saprophyticus): 0.25 µg/mL (≈ 0.631 µM)
- MIC ([9]; Staphylococcus aureus): 0.25 µg/mL (≈ 0.631 µM)
- MIC ([10]; Serratia): > 256 µg/mL
- MIC ([11]; Serratia): > 256 µg/mL
- MIC [12]: 8 µg/mL (≈ 20.2 µM)
- MIC ([13]; Enterococcus): 32 µg/mL (≈ 80.7 µM)
- MIC ([14]; Klebsiella pneumoniae): 1 µg/mL (≈ 2.52 µM)
- MIC [15]: 8 µg/mL (≈ 20.2 µM)
- MIC ([16]; Staphylococcus aureus): 32 µg/mL (≈ 80.7 µM)
- MIC [17, 44]: 16 µg/mL (≈ 40.4 µM)
- MIC ([18]; Staphylococcus aureus): ≤ 0.12 µg/mL
- MIC ([19]; Klebsiella oxytoca): > 256 µg/mL
- MIC ([20]; Staphylococcus aureus): 32 µg/mL (≈ 80.7 µM)
- MIC ([21]; Staphylococcus epidermidis): 0.25 µg/mL (≈ 0.631 µM)
- MIC ([22]; Enterobacter cloacae): > 256 µg/mL
- MIC ([23]; Morganella morganii): > 256 µg/mL
- MIC [24]: > 256 µg/mL
- MIC ([25]; Acinetobacter calcoaceticus): > 256 µg/mL
- MIC ([26]; Klebsiella pneumoniae): 2 µg/mL (≈ 5.04 µM)
- MIC [27]: 8 µg/mL (≈ 20.2 µM)
- MIC ([28]; Morganella morganii): > 256 µg/mL

- MIC [1, 29]: ≤ 0.12 µg/mL
- MIC [2, 45]: > 256 µg/mL
- MIC [3, 46]: > 256 µg/mL
- MIC [4, 30]: ≤ 0.12 µg/mL
- MIC [5, 31]: 2 µg/mL (≈ 4.27 µM)
- MIC [6, 47]: > 256 µg/mL
- MIC [7]: 64 µg/mL (≈ 137 µM)
- MIC [8, 32]: 1 µg/mL (≈ 2.13 µM)
- MIC [9, 33]: 0.5 µg/mL (≈ 1.07 µM)
- MIC [10, 48]: > 256 µg/mL
- MIC [11, 34]: > 256 µg/mL
- MIC [12]: 64 µg/mL (≈ 137 µM)
- MIC [13, 35]: 32 µg/mL (≈ 68.3 µM)
- MIC [14, 36]: 8 µg/mL (≈ 17.1 µM)
- MIC [15]: 32 µg/mL (≈ 68.3 µM)
- MIC [16, 37]: 32 µg/mL (≈ 68.3 µM)
- MIC [17, 44]: 64 µg/mL (≈ 137 µM)
- MIC [18, 38]: 1 µg/mL (≈ 2.13 µM)
- MIC [19, 39]: 256 µg/mL (≈ 546 µM)
- MIC [20, 40]: 32 µg/mL (≈ 68.3 µM)
- MIC [21, 41]: 2 µg/mL (≈ 4.27 µM)
- MIC [22, 49]: > 256 µg/mL
- MIC [23, 50]: > 256 µg/mL
- MIC [24, 51]: 256 µg/mL (≈ 546 µM)
- MIC [25, 42]: > 256 µg/mL
- MIC [26, 43]: 32 µg/mL (≈ 68.3 µM)
- MIC [27]: 32 µg/mL (≈ 68.3 µM)
- MIC [28, 52]: > 256 µg/mL
SMILES: Cc1snnc1SCC1=C(C(=O)O)N2C(=O)[C@@H](NC(=O)Cc3cccs3)[C@H]2SC1 [Example 8, (6R-trans)-3-[[(5-Methyl-1,2,3-thiadiazol-4-yl)thio]methyl]-8-oxo-7-[(2-thienylacetyl)amino]-5-thia-1-azabicyclo[4.2.0]oct-2-ene-2-carboxylic acid]

- MIC [1, 29]: ≤ 0.12 µg/mL
- MIC [2, 45]: > 256 µg/mL
- MIC [3, 46]: > 256 µg/mL
- MIC [4, 30]: ≤ 0.12 µg/mL
- MIC [5, 31]: 4 µg/mL (≈ 8.29 µM)
- MIC [6, 47]: > 256 µg/mL
- MIC [7]: 64 µg/mL (≈ 133 µM)
- MIC [8, 32]: 1 µg/mL (≈ 2.07 µM)
- MIC [9, 33]: 0.5 µg/mL (≈ 1.04 µM)
- MIC [10, 48]: > 256 µg/mL
- MIC [11, 34]: > 256 µg/mL
- MIC [12]: 128 µg/mL (≈ 265 µM)
- MIC [13, 35]: 32 µg/mL (≈ 66.3 µM)
- MIC [14, 36]: 16 µg/mL (≈ 33.2 µM)
- MIC [15]: 64 µg/mL (≈ 133 µM)
- MIC [16, 37]: 32 µg/mL (≈ 66.3 µM)
- MIC [17, 44]: 128 µg/mL (≈ 265 µM)
- MIC [18, 38]: 1 µg/mL (≈ 2.07 µM)
- MIC [19, 39]: 128 µg/mL (≈ 265 µM)
- MIC [20, 40]: 32 µg/mL (≈ 66.3 µM)
- MIC [21, 41]: 2 µg/mL (≈ 4.14 µM)
- MIC [22, 49]: > 256 µg/mL
- MIC [23, 50]: > 256 µg/mL
- MIC [24, 51]: > 256 µg/mL
- MIC [25, 42]: > 256 µg/mL
- MIC [26, 43]: 64 µg/mL (≈ 133 µM)
- MIC [27]: 64 µg/mL (≈ 133 µM)
- MIC [28, 52]: > 256 µg/mL
SMILES: CCc1snnc1SCC1=C(C(=O)O)N2C(=O)[C@@H](NC(=O)Cc3cccs3)[C@H]2SC1 [Example 10, (6R-trans)-3-[[(5-Ethyl-1,2,3-thiadiazol-4-yl)thio]methyl]-8-oxo-7-[(2-thienylacetyl)amino]-5-thia-1-azabicyclo[4.2.0]oct-2-ene-2-carboxylic acid]
